Experimental data published in patent US12371454B2, “Cyclic peptide compound having Kras inhibitory action” (priority 2019, dated 2025).
Starred links: 1 amine or outer side, 2 acyl side, 3 side chain; linkers in the order of their positions; H or OH if unused. Positions of bridges follow the written chain, without caps; N, C: chain ends. Non-standard residues stand in square brackets, D forms with d. Residues, ends and D or L forms follow the SMILES beside them. *: point of attachment. hPhe(3-Cl-4-CF3) = N[C@@H](CCc1ccc(C(F)(F)F)c(Cl)c1)C(=O)O; hPhe(4-CF3) = N[C@@H](CCc1ccc(C(F)(F)F)cc1)C(=O)O; NMePhe(4-Cl) = CN[C@@H](Cc1ccc(Cl)cc1)C(=O)O; NMePhe(4-Me) = CN[C@@H](Cc1ccc(C)cc1)C(=O)O; X62 = O=C([C@H](Cc1cc(I)ccc1Br)N[*:1])[*:2]; Oic = O=C(O)[C@@H]1C[C@@H]2CCCC[C@@H]2N1; NMeGly(cBu) = CN[C@H](C(=O)O)C1CCC1; NMeY = CN[C@@H](Cc1ccc(O)cc1)C(=O)O; NMeCha = CN[C@@H](CC1CCCCC1)C(=O)O; NMeChg = CN[C@H](C(=O)O)C1CCCCC1; NMeF = CN[C@@H](Cc1ccccc1)C(=O)O; NMeI = CC[C@H](C)[C@H](NC)C(=O)O; NMeD = CN[C@@H](CC(=O)O)C(=O)O; NMeL = CN[C@@H](CC(C)C)C(=O)O; NMeNva = CCC[C@H](NC)C(=O)O; NMeV = CN[C@H](C(=O)O)C(C)C; d(β3hA) = C[C@@H](N)CC(=O)O; NMeAbu = CC[C@H](NC)C(=O)O; dIva = CC[C@@](C)(N)C(=O)O; NMeS = CN[C@@H](CO)C(=O)O; NMeA = CN[C@@H](C)C(=O)O; NMeAib = CNC(C)(C)C(=O)O; Nle = CCCC[C@H](N)C(=O)O; Piperidide = C1CCN(*)CC1; Pyrrolidide = C1CCN(*)C1; dNMeA = CN[C@H](C)C(=O)O; Ac5c = NC1(C(=O)O)CCCC1; Aze = O=C(O)[C@@H]1CCN1; Aib = CC(C)(N)C(=O)O; Isopentyl = CC(C)CC*; Sar = CNCC(=O)O

What follows are compounds tested against T1, Kras and SOS1 (biotin-tagged human Kras loaded with GDP, His-tagged human SOS1) (Homo sapiens, UniProt P01116, G12D) (assay: Protein-protein interaction inhibition between Kras and SOS1 (KrasGl2D-SOS PPI) using AlphaScreen). Details: AlphaScreen; biotin-tagged human Kras loaded with GDP, His-tagged human SOS1; read-out: KRAS G12D-SOS PPI IC50.
T1 construct: made in house; host or cells: E. coli (stated for Kras only)
T1 sequence (P01116 1-188 isoform P01116-2 G12D): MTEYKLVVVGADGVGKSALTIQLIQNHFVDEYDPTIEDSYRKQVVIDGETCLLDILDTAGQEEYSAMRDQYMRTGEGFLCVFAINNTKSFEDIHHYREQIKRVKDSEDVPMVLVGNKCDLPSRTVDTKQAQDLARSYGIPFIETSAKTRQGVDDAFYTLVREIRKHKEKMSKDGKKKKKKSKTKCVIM
Format: binding
How it was run: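 Donor beads (nickel) hold His-SOS1; acceptor beads (streptavidin) hold biotin-Kras bound to GDP. Signal measured at 520-620 nm following 680 nm excitation.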
In the case of CC[C@H](C)[C@@H]1NC(=O)[C@H](CC(C)C)N(C)C(=O)C[C@@H](C)NC(=O)[C@H](C(C)C)N(C)C(=O)[C@@](C)(CC)NC(=O)[C@@H]2CCCN2C(=O)[C@H](CCc2ccc(C(F)(F)F)c(Cl)c2)NC(=O)CN(C)C(=O)[C@H](CC2CCCCC2)N(C)C(=O)CN(C)C(=O)CN(C)C1=O [Compound 275] (cyclo(I[Sar][Sar][NMeCha][Sar][hPhe(3-Cl-4-CF3)]P[dIva][NMeV][d(β3hA)][NMeL])), the IC50 is reported as 46 nM. In the case of CCC[C@H]1C(=O)NC2(CCCC2)C(=O)N(C)[C@@H](C2CCCCC2)C(=O)N(C)[C@H](C(=O)N2CCCCC2)CC(=O)N(C)[C@@H](CC(C)C)C(=O)N[C@@H]([C@@H](C)CC)C(=O)N(C)CC(=O)N2CCC[C@H]2C(=O)N(C)[C@@H](CC2CCCCC2)C(=O)N(C)CC(=O)N[C@@H](CCc2ccc(C(F)(F)F)c(Cl)c2)C(=O)N1C [Compound 392] ([NMeL]I[Sar]P[NMeCha][Sar][hPhe(3-Cl-4-CF3)][NMeNva][Ac5c][NMeChg][NMeD]-Piperidide; lactam N-11), the IC50 is reported as 12 nM. Work on CC[C@H](C)[C@@H]1NC(=O)[C@H](CC(C)C)N(C)C(=O)C[C@@H](C)NC(=O)[C@H](CC(C)C)N(C)C(=O)C(C)(C)NC(=O)[C@@H]2C[C@@H]3CCCC[C@@H]3N2C(=O)[C@H](CCc2ccc(C(F)(F)F)cc2)NC(=O)CN(C)C(=O)[C@H](Cc2ccc(Cl)cc2)N(C)C(=O)CN(C)C(=O)CN(C)C1=O [Compound 922] (cyclo([Aib][NMeL][d(β3hA)][NMeL]I[Sar][Sar][NMePhe(4-Cl)][Sar][hPhe(4-CF3)][Oic])) yielded an IC50 of 230 nM. Work on CC[C@H](C)[C@@H]1NC(=O)[C@H](CC(C)C)N(C)C(=O)C[C@@H](C(=O)N(C)C)N(C)C(=O)[C@H]([C@@H](C)CC)N(C)C(=O)C2(CCCC2)NC(=O)[C@@H](C)NC(=O)[C@H](CCc2ccc(C(F)(F)F)c(Cl)c2)NC(=O)CN(C)C(=O)[C@H](Cc2ccc(C)cc2)N(C)C(=O)[C@@H]2CCN2C(=O)[C@H](C)N(C)C1=O [Compound 67] ([NMeL]I[NMeA][Aze][NMePhe(4-Me)][Sar][hPhe(3-Cl-4-CF3)][dA][Ac5c][NMeI][NMeD]-NMe2; lactam N-11) yielded an IC50 of 8.3 nM. CC[C@H](C)[C@@H]1NC(=O)[C@H](CC(C)C)N(C)C(=O)C[C@@H](C(=O)N2CCCCC2)N(C)C(=O)[C@H](C2CCCCC2)N(C)C(=O)C2(CCCC2)NC(=O)[C@@H]2CCCN2C(=O)[C@H](CCc2ccc(C(F)(F)F)c(Cl)c2)NC(=O)CN(C)C(=O)[C@H](C2CCC2)N(C)C(=O)CN(C)C(=O)CN(C)C1=O [Compound 936] ([NMeL]I[Sar][Sar][NMeGly(cBu)][Sar][hPhe(3-Cl-4-CF3)]P[Ac5c][NMeChg][NMeD]-Piperidide; lactam N-11) showed an IC50 of 1.1 nM. Work on CC[C@H](C)[C@@H]1NC(=O)[C@H](C)N(C)C(=O)C[C@@H](C)NC(=O)[C@H](C(C)C)N(C)C(=O)C2(CCCC2)NC(=O)[C@@H]2CCCN2C(=O)[C@H](CCc2ccc(C(F)(F)F)c(Cl)c2)NC(=O)[C@@H](C)N(C)C(=O)[C@H](CC2CCCCC2)N(C)C(=O)CN(C)C(=O)CN(C)C1=O [Compound 773] (cyclo([Ac5c][NMeV][d(β3hA)][NMeA]I[Sar][Sar][NMeCha][dNMeA][hPhe(3-Cl-4-CF3)]P)) yielded an IC50 of 140 nM. Compound CCCC[C@@H]1NC(=O)[C@H](Cc2cc(I)ccc2Br)NC(=O)CN(C)C(=O)[C@H](Cc2ccc(OC)cc2)N(C)C(=O)[C@@H]2CCN2C(=O)[C@H](C)N(C)C(=O)[C@H]([C@@H](C)CC)NC(=O)[C@H](CC)N(C)C(=O)C[C@@H](C(=O)N2CCCCC2)N(C)C(=O)[C@H](CC(C)C)NC(=O)C(C)(C)N(C)C1=O [Compound 1155] ([NMeAbu]I[NMeA][Aze][NMeY](Me)[Sar][X62][Nle][NMeAib]L[NMeD]-Piperidide; lactam N-11) has an IC50 of 170 nM. CC[C@H](C)[C@@H]1NC(=O)[C@H](C)N(C)C(=O)C[C@@H](C(=O)N2CCCC2)NC(=O)[C@H](C(C)C)N(C)C(=O)[C@H](Cc2ccccc2)N(C)C(=O)[C@H](CC(C)C)N(C)C(=O)[C@H](CCc2ccc(C(F)(F)F)cc2)NC(=O)CN(C)C(=O)[C@H](Cc2ccc(Cl)cc2)N(C)C(=O)CN(C)C(=O)CN(C)C1=O [Compound 152] ([NMeA]I[Sar][Sar][NMePhe(4-Cl)][Sar][hPhe(4-CF3)][NMeL][NMeF][NMeV]D-Pyrrolidide; lactam N-11) showed an IC50 of 110 nM. With CC[C@H](C)[C@@H]1NC(=O)[C@H](C)N(C)C(=O)C[C@@H](C(=O)N2CCCC2)NC(=O)[C@H](CC(C)C)N(C)C(=O)[C@H](COCCC(C)C)N(C)C(=O)[C@H](CC(C)C)NC(=O)[C@H](CCc2ccc(C(F)(F)F)cc2)NC(=O)CN(C)C(=O)[C@H](Cc2ccc(Cl)cc2)N(C)C(=O)CN(C)C(=O)CN(C)C1=O [Compound 675] ([NMeA]I[Sar][Sar][NMePhe(4-Cl)][Sar][hPhe(4-CF3)]L[NMeS](Isopentyl)[NMeL]D-Pyrrolidide; lactam N-11) the IC50 was 59 nM.
